Among the test systems are 786-0; A549; CCRF-CEM; COLO 205; DU-145; HCC 2998; HCT-116; HT-29; MDA-MB-231; MOLT-4; NCI-H522; OVCAR-5; OVCAR-8; SF-295; TK-10; UACC-257; UO-31; ACHN; OVCAR-4; SNB-75.
Common to all, as to assay: NCI-60 cell line screen, 48 h

SMILES strings stand for the structures.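 Values below derive from 48-hour exposures of cells grown in 96-well plates, with endpoints linearly interpolated between the two concentrations bracketing the appropriate inhibition level. Here, GI50 denotes the concentration required for 50% inhibition of growth.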 The source made the active and inactive calls. No stated cut-off is given here; in the data, active = GI50 up to about 1.1 µM and inactive = higher. A value given as a limit tells only on which side of the number the result lay.

As for `O=C(CN1CCCCC1)Nc1ccc2c(c1)C1Oc3ccccc3CC1CO2` (centres undefined), the GI50 in the experiment on 786-0 is 20.7 µM (inactive); in the experiment on A549 it was 32.5 µM (inactive); in the experiment on CCRF-CEM it was 34.3 µM (inactive); with COLO 205, 13.3 µM (inactive); with DU-145 it was 35.2 µM (inactive); in the experiment on HCC 2998 it was 19.1 µM (inactive). The GI50 in the experiment on HCT-116 is 16.2 µM (inactive); with HT-29 it was 14.5 µM (inactive); in the experiment on MDA-MB-231, 17.3 µM (inactive); in the experiment with MOLT-4 it was 31.5 µM (inactive); with NCI-H522 it was 17.9 µM (inactive); with OVCAR-5, 18.7 µM (inactive). Besides, the GI50 is 39 µM (inactive) in the experiment with OVCAR-8; 19.5 µM (inactive) with SF-295; 23.8 µM (inactive) in the experiment with TK-10; 19.2 µM (inactive) in the experiment on UACC-257; 21.2 µM (inactive) with UO-31.

For the molecule `CO/N=C\c1ccc2c(c1)Sc1ccccc1O2`, the GI50 with 786-0 is 69.5 µM (inactive); in the experiment on A549, 44.8 µM (inactive); with ACHN, > 100 µM (inactive); with COLO 205, 66.4 µM (inactive); with DU-145 it was > 100 µM (inactive); with HCC 2998 it was 45.7 µM (inactive). Also, the GI50 was 40.3 µM (inactive) with HCT-116; 33.1 µM (inactive) in the experiment with HT-29; > 100 µM (inactive) with MDA-MB-231; 54.7 µM (inactive) in the experiment on MOLT-4; 43.9 µM (inactive) in the experiment on OVCAR-4; 48.2 µM (inactive) in the experiment with OVCAR-5. Besides, the GI50 in the experiment with OVCAR-8 was 95.9 µM (inactive); in the experiment on SF-295 it was 36.3 µM (inactive); in the experiment on SNB-75 it was 52.5 µM (inactive); in the experiment on TK-10, > 100 µM (inactive); in the experiment on UACC-257, 57 µM (inactive); in the experiment with UO-31, 58.3 µM (inactive).

Turning to `Cc1ccccc1NC(=O)C(=O)CC(=O)c1sc(Nc2ccccc2[N+](=O)[O-])nc1C`, the GI50 is 21.5 µM (inactive) in the experiment on 786-0; 34.8 µM (inactive) with A549; 20.3 µM (inactive) with ACHN; 86.1 µM (inactive) with COLO 205; 50 µM (inactive) with DU-145; 24.4 µM (inactive) with HCC 2998. For the same molecule, the GI50 was 29.7 µM (inactive) in the experiment with HCT-116; 26.7 µM (inactive) with HT-29; 17.3 µM (inactive) in the experiment on MDA-MB-231; 51.1 µM (inactive) with MOLT-4; 27.7 µM (inactive) in the experiment with NCI-H522; 18.2 µM (inactive) in the experiment on OVCAR-4. Moreover, the GI50 was 90.2 µM (inactive) in the experiment with OVCAR-5; 43.4 µM (inactive) in the experiment with OVCAR-8; 22.5 µM (inactive) in the experiment with SF-295; 25.7 µM (inactive) in the experiment with TK-10; 29.9 µM (inactive) in the experiment on UACC-257; 10.4 µM (inactive) with UO-31.

Regarding `O=C1NC(=S)NC(=O)C1=C/C=C/c1ccc([N+](=O)[O-])cc1`, the GI50 was 14.2 µM (inactive) with 786-0; 21.1 µM (inactive) in the experiment on A549; 18 µM (inactive) in the experiment with ACHN; 2.32 µM (inactive) in the experiment with CCRF-CEM; 13.2 µM (inactive) with COLO 205; 16.1 µM (inactive) in the experiment on DU-145. Further, the GI50 in the experiment with HCC 2998 is 18.4 µM (inactive); in the experiment on HCT-116 it was 17.8 µM (inactive); in the experiment with HT-29, 23.8 µM (inactive); in the experiment on MDA-MB-231 it was 18.2 µM (inactive); in the experiment on MOLT-4 it was 3.04 µM (inactive); in the experiment on OVCAR-4, 19.8 µM (inactive). Moreover, the GI50 in the experiment with OVCAR-5 was 18.3 µM (inactive); in the experiment on OVCAR-8, 22.1 µM (inactive); with SF-295 it was 17.3 µM (inactive); in the experiment with SNB-75, 19.2 µM (inactive); in the experiment with TK-10 it was 5.45 µM (inactive); in the experiment on UACC-257 it was 12.7 µM (inactive). The GI50 in the experiment with UO-31 is 18.3 µM (inactive).

Regarding `CCCCCC(C)(C)CCC(=O)OC1OC(COC2OC(COC3OC(CO)C(O)C(O)C3O)C(O)C(O)C2O)C(O)C(O)C1O` (centres undefined), the GI50 with 786-0, in the experiment on A549, in the experiment with ACHN, in the experiment with CCRF-CEM, in the experiment with COLO 205 and in the experiment on DU-145 was > 100 µM (inactive) in each case. Besides, the GI50 with HCC 2998, in the experiment with HCT-116, in the experiment on HT-29, in the experiment with MDA-MB-231, in the experiment with MOLT-4 and with NCI-H522 was > 100 µM (inactive) in each case. Also, the GI50 with OVCAR-5, in the experiment on OVCAR-8, with SF-295, with TK-10, in the experiment with UACC-257 and in the experiment with UO-31 was > 100 µM (inactive) in each case.

For `Cc1nc2cn3c(c2c(=O)[nH]1)CCCCC3`, the GI50 in the experiment on 786-0, in the experiment with ACHN, in the experiment with CCRF-CEM, with COLO 205, in the experiment on DU-145 and in the experiment on HCC 2998 was > 100 µM (inactive) each time. Also, the GI50 in the experiment with HCT-116 is > 100 µM (inactive); in the experiment with HT-29 it was > 100 µM (inactive); in the experiment on MDA-MB-231, 28.2 µM (inactive); in the experiment with MOLT-4, > 100 µM (inactive); in the experiment with OVCAR-4, > 100 µM (inactive); in the experiment with OVCAR-8 it was > 100 µM (inactive). Moreover, the GI50 in the experiment on SF-295, with SNB-75, with TK-10, in the experiment on UACC-257 and in the experiment on UO-31 was > 100 µM (inactive) throughout.

For `O=CNNC(=O)Nc1ccc(Cl)cc1`, the GI50 in the experiment with 786-0, in the experiment with A549, in the experiment with ACHN, in the experiment on CCRF-CEM, with COLO 205 and in the experiment with DU-145 was > 100 µM (inactive) in each case. Also, the GI50 in the experiment with HCC 2998, in the experiment on HCT-116, with HT-29, in the experiment with MDA-MB-231, with MOLT-4 and in the experiment with OVCAR-4 was > 100 µM (inactive) throughout. In addition, the GI50 in the experiment with OVCAR-5 was > 100 µM (inactive); with OVCAR-8 it was > 100 µM (inactive); in the experiment with SF-295, 33.7 µM (inactive); in the experiment with SNB-75, > 100 µM (inactive); in the experiment on TK-10 it was > 100 µM (inactive); with UACC-257, > 100 µM (inactive). Besides, the GI50 in the experiment with UO-31 is 68.7 µM (inactive).

With `CC1C2C=CC1C(c1c3ccc(=O)c(O)c-3oc3c(O)c(O)ccc13)C2C(=O)O` (centres undefined), the GI50 in the experiment with 786-0 was 61 µM (inactive); in the experiment with A549 it was 35 µM (inactive); with ACHN, 53.5 µM (inactive); with CCRF-CEM, 1.01 µM (active); in the experiment with COLO 205, > 100 µM (inactive); in the experiment with DU-145, > 100 µM (inactive). The GI50 in the experiment with HCC 2998 is > 100 µM (inactive); in the experiment with HCT-116 it was 27.8 µM (inactive); with HT-29 it was > 100 µM (inactive); in the experiment on MDA-MB-231, > 100 µM (inactive); in the experiment with MOLT-4, 21.6 µM (inactive); in the experiment on OVCAR-4 it was 78.9 µM (inactive). The GI50 in the experiment on OVCAR-5 is > 100 µM (inactive); with OVCAR-8 it was > 100 µM (inactive); in the experiment on SF-295, 43.2 µM (inactive); with TK-10, > 100 µM (inactive); in the experiment on UACC-257 it was > 100 µM (inactive); with UO-31 it was > 100 µM (inactive).

(Values after ChEMBL document CHEMBL1201862, “PubChem BioAssay data set” (2004).)
